Structures can show the parent of a compound that is named as a salt.
Legend:
[1] = Thermodynamic stability of polymorphic forms; type: physicochemical
Description: Crystalline eprosartan acid exists in two different polymorphic forms—the α (alpha) and β (beta) forms. The a polymorphic form of eprosartan acid has the highest thermodynamic stability of up to 200° C. Although the Examples use the α form of eprosartan acid, the β form of eprosartan acid can also be used in the same way.

[2] = in vivo; cited from earlier work

## CCCCc1ncc(/C=C(\Cc2cccs2)C(=O)O)n1Cc1ccc(C(=O)O)cc1 [a polymorphic form of eprosartan acid]
[1]
  highest thermodynamic stability of up to: up to 200 °C

## CCCCc1ncc(/C=C(\Cc2cccs2)C(=O)O)n1Cc1ccc(C(=O)O)cc1 [eprosartan mesylate]
[2]
  variable and mean absolute bioavailability: approximately 13%
